From PubChem BioAssay (NCI)
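Cells were grown in 96-well plates and exposed to each compound for 48 hours at five concentrations; endpoints were interpolated linearly between bracketing concentrations, or set to the highest concentration if not reached. GI50 marks 50% less growth. TGI denotes the concentration required for complete inhibition of growth.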

Assays:
Assay in all cases: NCI-60 cell line screen, 48 h; in the data active = GI50 below about 0.43 µM; inactive = the rest
SN12C renal = tested on: SN12C renal
U251 CNS = tested on: U251 CNS
TK-10 renal = tested on: TK-10 renal
LOX IMVI melanoma = tested on: LOX IMVI melanoma
CAKI-1 renal = tested on: CAKI-1 renal
HOP-62 NSCLC = tested on: HOP-62 NSCLC
UO-31 renal = tested on: UO-31 renal
SNB-75 CNS = tested on: SNB-75 CNS
786-0 renal = tested on: 786-0 renal
NCI/ADR-RES ovarian = tested on: NCI/ADR-RES ovarian

O=C(NN1C(=O)CSC12CCCC2)c1[nH]c2ccc(Br)cc2c1-c1ccccc1
> 100 µM: TGI (U251 CNS) | TGI (TK-10 renal) | TGI (LOX IMVI melanoma) | TGI (CAKI-1 renal) | TGI (HOP-62 NSCLC) | TGI (UO-31 renal) | TGI (SNB-75 CNS) | TGI (786-0 renal)
77 µM: TGI (SN12C renal)
inactive: GI50 (SN12C renal) 25.9 µM | GI50 (U251 CNS) 38.2 µM | GI50 (TK-10 renal) 80.9 µM | GI50 (LOX IMVI melanoma) 45.5 µM | GI50 (CAKI-1 renal) 32.8 µM | GI50 (HOP-62 NSCLC) 62.5 µM | GI50 (UO-31 renal) 59.1 µM | GI50 (SNB-75 CNS) 46.1 µM | GI50 (786-0 renal) 22.3 µM

COc1ccc(C(=O)C(c2ccc(OC)cc2)C2(O)C(=O)Nc3c2ccc(Cl)c3C)cc1 (configuration not stated)
> 100 µM: TGI (SN12C renal) | TGI (U251 CNS) | TGI (TK-10 renal) | TGI (LOX IMVI melanoma) | TGI (HOP-62 NSCLC) | TGI (UO-31 renal) | TGI (SNB-75 CNS) | TGI (786-0 renal)

COc1ccc2ccccc2c1C1OC(=O)c2ccccc21 (configuration not stated)
> 100 µM: TGI (SN12C renal) | TGI (U251 CNS) | TGI (TK-10 renal) | TGI (LOX IMVI melanoma) | TGI (CAKI-1 renal) | TGI (HOP-62 NSCLC) | TGI (UO-31 renal) | TGI (786-0 renal)

COc1ccc(OC)c(NC(=O)CCC/C(CC(=O)c2ccc(O)c(OC)c2)=N\Nc2ccc([N+](=O)[O-])cc2)c1
> 100 µM: TGI (SN12C renal) | TGI (U251 CNS) | TGI (TK-10 renal) | TGI (LOX IMVI melanoma) | TGI (CAKI-1 renal) | TGI (HOP-62 NSCLC) | TGI (UO-31 renal) | TGI (786-0 renal)
79 µM: TGI (SNB-75 CNS)

COc1cc(C2C(Cl)C(=O)N2NC(=O)c2ccc(N)cc2)ccc1O (configuration not stated)
32 µM: TGI (U251 CNS)
32.1 µM: TGI (LOX IMVI melanoma)
39.4 µM: TGI (786-0 renal)
> 100 µM: TGI (SN12C renal) | TGI (TK-10 renal) | TGI (HOP-62 NSCLC) | TGI (UO-31 renal) | TGI (SNB-75 CNS)
78.9 µM: TGI (CAKI-1 renal)

CCOC(=O)NC(=O)c1cn(CCCCCCOC(=O)NCCCCCCNC(=O)OCCCCCCn2cc(C(=O)NC(=O)OCC)c(=O)[nH]c2=O)c(=O)[nH]c1=O
> 100 µM: TGI (SN12C renal) | TGI (U251 CNS) | TGI (LOX IMVI melanoma) | TGI (CAKI-1 renal) | TGI (HOP-62 NSCLC) | TGI (UO-31 renal) | TGI (SNB-75 CNS) | TGI (786-0 renal)

O=S1(=O)OCCOS(=O)(=O)C1Cc1ccccc1
> 100 µM: TGI (SN12C renal) | TGI (U251 CNS) | TGI (TK-10 renal) | TGI (LOX IMVI melanoma) | TGI (CAKI-1 renal) | TGI (HOP-62 NSCLC) | TGI (UO-31 renal) | TGI (SNB-75 CNS) | TGI (786-0 renal)

COC(=O)CCC(NC(=S)N/N=C/c1ccco1)C(=O)OC (configuration not stated)
> 100 µM: TGI (SN12C renal) | TGI (U251 CNS) | TGI (TK-10 renal) | TGI (LOX IMVI melanoma) | TGI (HOP-62 NSCLC) | TGI (UO-31 renal) | TGI (SNB-75 CNS) | TGI (786-0 renal)

COC(=O)C1=CC2C(=O)OC1CC2C#N (configuration not stated)
> 100 µM: TGI (SN12C renal) | TGI (U251 CNS) | TGI (TK-10 renal) | TGI (LOX IMVI melanoma) | TGI (CAKI-1 renal) | TGI (HOP-62 NSCLC) | TGI (UO-31 renal) | TGI (SNB-75 CNS) | TGI (786-0 renal)

O=C(c1ccccc1)c1cccc(C(=O)c2ccccc2)c1
> 100 µM: TGI (SN12C renal) | TGI (U251 CNS) | TGI (TK-10 renal) | TGI (LOX IMVI melanoma) | TGI (CAKI-1 renal) | TGI (HOP-62 NSCLC) | TGI (UO-31 renal) | TGI (SNB-75 CNS) | TGI (786-0 renal)

CC(=O)C1C(=O)C(=O)N(c2ccccc2C(C)C)C1=O (configuration not stated)
> 100 µM: TGI (SN12C renal) | TGI (U251 CNS) | TGI (TK-10 renal) | TGI (LOX IMVI melanoma) | TGI (CAKI-1 renal) | TGI (HOP-62 NSCLC) | TGI (UO-31 renal) | TGI (SNB-75 CNS) | TGI (786-0 renal)

CC1=C2C(=CC(C)(C)C2O)C(=O)C(C)(O)C12CC2 (configuration not stated)
0.102 µM: TGI (U251 CNS)
0.14 µM: TGI (TK-10 renal)
active: GI50 (U251 CNS) 0.00775 µM
0.025 µM: TGI (LOX IMVI melanoma)
0.0388 µM: TGI (786-0 renal)
0.0315 µM: TGI (CAKI-1 renal)
0.0291 µM: TGI (UO-31 renal)
0.0447 µM: TGI (HOP-62 NSCLC)
0.0377 µM: TGI (SNB-75 CNS)
0.146 µM: TGI (SN12C renal)

NC(=O)c1c(NC(=O)c2ccc3c(c2)OCO3)sc2c1CCC(=O)C2
> 100 µM: TGI (SN12C renal) | TGI (U251 CNS) | TGI (TK-10 renal) | TGI (LOX IMVI melanoma) | TGI (HOP-62 NSCLC) | TGI (786-0 renal) | TGI (NCI/ADR-RES ovarian)
6.5 µM: TGI (SNB-75 CNS)
inactive: GI50 (SN12C renal) 3.03 µM | GI50 (U251 CNS) 0.467 µM | GI50 (TK-10 renal) 3.32 µM | GI50 (LOX IMVI melanoma) 1.15 µM | GI50 (HOP-62 NSCLC) 4.11 µM | GI50 (SNB-75 CNS) 2.13 µM | GI50 (786-0 renal) 2.19 µM | GI50 (NCI/ADR-RES ovarian) 2.2 µM

C[C@]12CCC3[C@@H](CC[C@@H]4c5nonc5CC[C@]34C)C1C/C(=N/O)C2=O (some centres not stated)
> 100 µM: TGI (SN12C renal) | TGI (U251 CNS) | TGI (TK-10 renal) | TGI (LOX IMVI melanoma) | TGI (CAKI-1 renal) | TGI (HOP-62 NSCLC) | TGI (UO-31 renal) | TGI (786-0 renal)
2.98 µM: TGI (SNB-75 CNS)

C[Si](C)(C)c1ccc(-c2sc(-c3ccc([Si](C)(C)C)s3)c3c2C[Si]2(C3)Cc3c(-c4ccc([Si](C)(C)C)s4)sc(-c4ccc([Si](C)(C)C)s4)c3C2)s1
> 100 µM: TGI (SN12C renal) | TGI (U251 CNS) | TGI (TK-10 renal) | TGI (LOX IMVI melanoma) | TGI (CAKI-1 renal) | TGI (HOP-62 NSCLC) | TGI (UO-31 renal) | TGI (SNB-75 CNS) | TGI (786-0 renal)

CN(/N=C/c1cccc2cccnc12)c1ccccc1
> 100 µM: TGI (SN12C renal) | TGI (U251 CNS) | TGI (TK-10 renal) | TGI (LOX IMVI melanoma) | TGI (CAKI-1 renal) | TGI (HOP-62 NSCLC) | TGI (UO-31 renal) | TGI (SNB-75 CNS) | TGI (786-0 renal)
